Columns and labels:
[1] = tested on: SARS-CoV-2 clinically isolated strain; conditions: Vero cells, 24 hours, Yao et al.; cited from earlier work
[2] = Frisk-Holmberg et al., Cui et al.; cited from earlier work
[3] = Transfer rate assessment, liquid formulation to aerosol (Cambridge filter pad, LC-HR-MS); conditions: 30 puffs collected
[4] = tested on: 3D organotypic human bronchial cultures; test: Transepithelial electrical resistance (TEER); conditions: post 24 h exposure
[5] = Thermal decomposition during thermal aerosolization (LC-HR-MS); conditions: LC-HR-MS spectra of aerosol sample
[6] = tested on: novel coronavirus (2019-nCoV); conditions: cited from earlier work
[7] = Aerosol particle size distribution (Aerodynamic Particle Sizer); conditions: thermal aerosolization 200-220° C., 40 mg/mL in propylene glycol

Row | SMILES | EC50 [1] | plasma concentration at which no adverse reactions are observed [2] | warning limit plasma concentration at which 80% of the subjects showed adverse effects [2] | amount per puff in aerosol ([3]; 40 mg/mL chloroquine liquid formulation) | TEER ([4]; 50 puffs) | TEER ([4]; 100 puffs) | decomposition during thermal aerosolization [5] | EC50 ([6]; block of COVID-19 infection in vitro, Wang et al., read-out: half-maximal effective concentration (EC50)) | in vitro EC50 ([6]; values from Wang et al.) | in vitro EC90 ([6]; values from Wang et al.) | median aerodynamic diameter of aerosol particles [7] | amount per puff in aerosol ([3]; 100 mg/mL hydroxychloroquine liquid formulation)
1 | CCN(CC)CCCC(C)Nc1ccnc2cc(Cl)ccc12 (stereo not shown) [chloroquine] | 23.9 µM | 400 ng/mL | 800 ng/mL | 149.69 µg | very low TEER values for two replicates | no overall effect | no decomposition | 1.13 µM | 0.362 µg/mL | 2.208 µg/mL | 1.3 μm | 
2 | CCN(CCO)CCCC(C)Nc1ccnc2cc(Cl)ccc12 (stereo not shown) [hydroxychloroquine] |  |  |  |  |  |  | no decomposition |  |  |  |  | 330.32 µg

From patent publication US20230398068A1 (priority 2020, published 2023)
